Reference: patent US20110166149A1, “PTERIDINE DERIVATIVES FOR TREATING RESPIRATORY DISEASE” (TARGEGEN INC., priority 2008, published 2011)
Read-outs that look alike come from different tables or passages of the source.

Test: Inhalation exposure: Compound A concentration in lung, plasma and BALF (Example 2)
Type: in vivo, BALB/c mice
Conditions: for AUC(0-inf) / Cmax / Tmax / AUC(0-t) / concentration at 0.083 h / concentration at 0.25 h / concentration at 0.5 h / concentration at 1 h / concentration at 2 h / concentration at 4 h / concentration at 8 h / concentration at 12 h / concentration at 24 h: male, BALB/c; for AUC(0-inf) / Cmax / Tmax / AUC(0-t): inhaled or intranasal; for AUC(0-t): read-out: AUC(0-24); for concentration at 0.083 h / concentration at 0.25 h / concentration at 0.5 h / concentration at 1 h / concentration at 2 h / concentration at 4 h / concentration at 8 h / concentration at 12 h / concentration at 24 h: mouse, inhaled, mice, 30 min inhalation
Protocol: A series of compositions for pulmonary delivery were prepared by making a 20% suspension of compound A in a 5% tyloxapol solution in water. Particle size reduction was achieved using a colloid mill (magicLAB®, MK module, for 6 hours @ 12,000 rpm, while maintaining a temperature below 50° C.). Samples at 4% w/v compound A were prepared by dilution with DI water.
Low (0.02 mg/L), mid (0.07 mg/L), and high (0.20 mg/L) target aerosol concentrations 0.3% Compound A/0.075% tyloxapol, 0.6% Compound A/0.15% tyloxapol, and 1.5% Compound A/0.375% tyloxapol suspensions were used. These low, mid, and high target formulations were prepared as follows: […]
4% compound A and 1% tyloxapol were removed from refrigeration and approximately 2.25, 4.5, and 12 mL were transferred into clean 50 mL graduated plastic tubes, labeled 0.3% A/0.075% tyloxapol, 0.6% A/0.15% tyloxapol, and 1.5% A/0.375% tyloxapol suspensions and allowed to warm to room temperature. Each was diluted to 20 mL with ultra pure water and vortexed until completely mixed. Each formulation was made the morning of exposure to alleviate any storing/stability issues.
Eighty-seven (87) male BALB/c mice (8 weeks of age on arrival and 18.6-24.6 g on exposure day) were purchased from Charles River Laboratories (Raleigh, N.C.). The three animals with the lowest body weights and the three with the highest body weights were excluded from the study on the day of randomization. The remaining eighty-one (81) animals were assigned to the study. Temperatures and relative humidity (RH) in animal housing areas were within the target range specified in the protocol.
Animals were exposed to one of three concentrations of Compound A aerosols for a target of 30 min.
The actual concentrations of test article in the exposure atmospheres were determined by chemical analysis of timed filter samples collected directly from a nose-only exposure port during exposure. In addition, one impactor sample was obtained to verify particle size distribution (PSD), which is characterized by mass median aerodynamic diameter (MMAD) and geometric standard deviation (GSD). The filters and impactor stages were analyzed chemically by LRRI and are described below.

[1] = 0.15 mg/kg, mouse BALF, aerosol conc. 0.02 mg/L
[2] = 0.27 mg/kg, mouse BALF, aerosol conc. 0.07 mg/L
[3] = 0.7 mg/kg, mouse BALF, aerosol conc. 0.2 mg/L
[4] = mouse lung, aerosol conc. 0.02 mg/L
[5] = mouse lung, aerosol conc. 0.07 mg/L
[6] = mouse lung, aerosol conc. 0.2 mg/L
[7] = BALF, nominal aerosol 0.02 mg/L, read-out: Compound A concentration BALF
[8] = BALF, nominal aerosol 0.07 mg/L, read-out: Compound A concentration BALF
[9] = BALF, nominal aerosol 0.2 mg/L, read-out: Compound A concentration BALF
[10] = lung, nominal aerosol 0.02 mg/L, read-out: Compound A concentration Lung

time course of concentration in lung and BALF (FIGS. 1 and 2, higher concentrations for mice exposed to higher doses): dose dependent
Maximum concentration in the BALF (Group A (0.02 mg/L)): 1190 ng/mL
Maximum concentration in the lung (Group A (0.02 mg/L)): 20.9 µg/g
time of maximum concentration in the BALF (Group A (0.02 mg/L)): 0.25 h
time of maximum concentration in the lung (Group A (0.02 mg/L)): 0.08 h
Maximum concentration in the BALF (Group B (0.07 mg/L)): 2140 ng/mL
time of maximum concentration in the BALF (Group B (0.07 mg/L)): 0.08 h
time of maximum concentration in the lung (Group B (0.07 mg/L)): 2.00 h
Maximum concentration in the BALF (Group C (0.2 mg/L)): 5670 ng/mL
time of maximum concentration in the BALF (Group C (0.2 mg/L)): 0.25 h
time of maximum concentration in the lung (Group C (0.2 mg/L)): 0.50 h
plasma levels (all aerosol concentrations, generally): < LLOQ
AUC(0-inf) [1]: 21700 ng·h/mL
Cmax [1]: 1190 ng/mL
Tmax [1]: 15 min
AUC(0-t) [1]: 8850 ng·h/mL
AUC(0-inf) [2]: 30400 ng·h/mL
Cmax [2]: 2140 ng/mL
Tmax [2]: 4.8 min
AUC(0-t) [2]: 18100 ng·h/mL
AUC(0-inf) [3]: 54300 ng·h/mL
Cmax [3]: 5670 ng/mL
Tmax [3]: 15 min
AUC(0-t) [3]: 37200 ng·h/mL
Cmax [4]: 20900 ng/g
Tmax [4]: 4.8 min
Cmax [5]: 22700 ng/g
Tmax [5]: 120 min
Cmax [6]: 67200 ng/g
Tmax [6]: 30 min
concentration at 0.083 h [7]: 896 ± 41.7 ng/mL
concentration at 0.25 h [7]: 1190 ± 35.4 ng/mL
concentration at 0.5 h [7]: 457 ± 219 ng/mL
concentration at 1 h [7]: 831 ± 288 ng/mL
concentration at 2 h [7]: 813 ± 117 ng/mL
concentration at 4 h [7]: 541 ± 409 ng/mL
concentration at 8 h [7]: 286 ± 156 ng/mL
concentration at 12 h [7]: 296 ± 19.1 ng/mL
concentration at 24 h [7]: 223 ± 91.2 ng/mL
concentration at 0.083 h [8]: 2140 ± 1340 ng/mL
concentration at 0.25 h [8]: 1190 ± 270 ng/mL
concentration at 0.5 h [8]: 1350 ± 559 ng/mL
concentration at 1 h [8]: 1250 ± 359 ng/mL
concentration at 2 h [8]: 930 ± 818 ng/mL
concentration at 4 h [8]: 1310 ± 1010 ng/mL
concentration at 8 h [8]: 800 ± 225 ng/mL
concentration at 12 h [8]: 569 ± 142 ng/mL
concentration at 24 h [8]: 512 ± 128 ng/mL
concentration at 0.083 h [9]: 3150 ± 110 ng/mL
concentration at 0.25 h [9]: 5670 ± 2550 ng/mL
concentration at 0.5 h [9]: 2220 ± 1910 ng/mL
concentration at 1 h [9]: 2570 ± 2030 ng/mL
concentration at 2 h [9]: 3190 ± 2580 ng/mL
concentration at 4 h [9]: 3350 ± 687 ng/mL
concentration at 8 h [9]: 1370 ± 185 ng/mL
concentration at 12 h [9]: 1050 ± 799 ng/mL
concentration at 24 h [9]: 694 ± 56 ng/mL
concentration at 0.083 h [10]: 20900 ± 13200 ng/g
concentration at 0.25 h [10]: 10100 ± 1390 ng/g
concentration at 0.5 h [10]: 11700 ± 8050 ng/g
concentration at 1 h [10]: 11800 ± 7260 ng/g
SMILES: Nc1nc(N)c2nc(-c3cccc(O)c3)c(-c3cccc(O)c3)nc2n1 [Compound A, 6,7-bis(3-hydroxyphenyl)-pteridine-2,4-diamine]
